This passage reports Time, Activity and TIME results from ChEMBL document CHEMBL3044623, “Feeding cessation effects of chlorantraniliprole, a new anthranilic diamide insecticide, in comparison with several insecticides in distinct chemical classes and mode-of-action groups” (2009).

Test [1] concerns Trichoplusia ni. Briefly: Antifeedant activity against third-instar larval stage of Trichoplusia ni (cabbage looper) infested compound-treated leaf assessed as time required to stop feeding at 467 mg a.i/L after 48 hr by leaf disk assay (reference value: > 2880 min). Type of test: functional.
Test [2] deals with Spodoptera exigua. The test can be described thus: Antifeedant activity against third-instar larval stage of Spodoptera exigua infested compound-treated leaf assessed as reduction in feeding damage at 467 mg a.i/L after 48 hr by leaf disk assay relative to untreated control. Type of test: functional. More on the design: scale not given: the % may be the effect or the level left.

In test [3] the test system is Helicoverpa zea. The test can be described thus: Antifeedant activity against third-instar larval stage of Helicoverpa zea (corn earworm) infested compound-treated leaf assessed as time required to stop feeding at 467 mg a.i/L after 48 hr by leaf disk assay (reference value: > 2880 min). Type of test: functional.
Test [4] relates to Trichoplusia ni. Briefly: Antifeedant activity against third-instar larval stage of Trichoplusia ni (cabbage looper) infested compound-treated leaf assessed as reduction in feeding damage at 467 mg a.i/L after 48 hr by leaf disk assay relative to untreated control. Type of test: functional. Also on record: scale not given: the % may be the effect or the level left.
For test [5], the system named is Plutella xylostella. The test can be described thus: Antifeedant activity against third-instar larval stage of Plutella xylostella (diamondback moth) infested compound-treated leaf assessed as time required to stop feeding at 467 mg a.i/L after 48 hr by leaf disk assay (reference value: > 2880 min). Type of test: functional.
In test [6] the test system is Spodoptera exigua. Briefly: Antifeedant activity against third-instar larval stage of Spodoptera exigua infested compound-treated leaf assessed as time required to stop feeding at 467 mg a.i/L after 48 hr by leaf disk assay (reference value: > 2880 min). Type of test: functional.
The subject of test [7] is Helicoverpa zea. Briefly: Antifeedant activity against third-instar larval stage of Helicoverpa zea (corn earworm) infested compound-treated leaf assessed as reduction in feeding damage at 467 mg a.i/L after 48 hr by leaf disk assay relative to untreated control. Type of test: functional. More on the design: scale not given: the % may be the effect or the level left.
In test [8] the test system is Plutella xylostella. Briefly: Antifeedant activity against third-instar larval stage of Plutella xylostella (diamondback moth) infested compound-treated leaf assessed as reduction in feeding damage at 467 mg a.i/L after 48 hr by leaf disk assay relative to untreated control. Type of test: functional. Also on record: scale not given: the % may be the effect or the level left.

The subject of test [9] is Spodoptera exigua. Briefly: Antifeedant activity against third-instar larval stage of Spodoptera exigua infested compound-treated leaf assessed as time required to stop feeding at 124 mg a.i/L after 48 hr by leaf disk assay (reference value: > 2880 min). Type of test: functional.
The test system of test [10] is Helicoverpa zea. Briefly: Antifeedant activity against third-instar larval stage of Helicoverpa zea (corn earworm) infested compound-treated leaf assessed as time required to stop feeding at 124 mg a.i/L after 48 hr by leaf disk assay (reference value: > 2880 min). Type of test: functional.
Test [11] concerns Spodoptera exigua. The test can be described thus: Antifeedant activity against third-instar larval stage of Spodoptera exigua infested compound-treated leaf assessed as reduction in feeding damage at 124 mg a.i/L after 48 hr by leaf disk assay relative to untreated control. Also on record: scale not given: the % may be the effect or the level left. Type of test: functional.
Test [12] has as its system Trichoplusia ni. The test can be described thus: Antifeedant activity against third-instar larval stage of Trichoplusia ni (cabbage looper) infested compound-treated leaf assessed as time required to stop feeding at 124 mg a.i/L after 48 hr by leaf disk assay (reference value: > 2880 min). Type of test: functional.
Test [13] concerns Plutella xylostella. The test can be described thus: Antifeedant activity against third-instar larval stage of Plutella xylostella (diamondback moth) infested compound-treated leaf assessed as time required to stop feeding at 124 mg a.i/L after 48 hr by leaf disk assay (reference value: > 2880 min). Type of test: functional.
The test system of test [14] is Helicoverpa zea. The test can be described thus: Antifeedant activity against third-instar larval stage of Helicoverpa zea (corn earworm) infested compound-treated leaf assessed as reduction in feeding damage at 124 mg a.i/L after 48 hr by leaf disk assay relative to untreated control. More on the design: scale not given: the % may be the effect or the level left. Type of test: functional.

Test [15] relates to Plutella xylostella. The test can be described thus: Antifeedant activity against third-instar larval stage of Plutella xylostella (diamondback moth) infested compound-treated leaf assessed as reduction in feeding damage at 124 mg a.i/L after 48 hr by leaf disk assay relative to untreated control. Type of test: functional. Also on record: scale not given: the % may be the effect or the level left.

Test [16] deals with Trichoplusia ni. Briefly: Antifeedant activity against third-instar larval stage of Trichoplusia ni (cabbage looper) infested compound-treated leaf assessed as reduction in feeding damage at 124 mg a.i/L after 48 hr by leaf disk assay relative to untreated control. More on the design: scale not given: the % may be the effect or the level left. Type of test: functional.
Test [17] has as its system Helicoverpa zea. The test can be described thus: Antifeedant activity against third-instar larval stage of Helicoverpa zea (corn earworm) infested compound-treated leaf assessed as time required to stop feeding at 936 mg a.i/L after 48 hr by leaf disk assay (reference value: > 2880 min). Type of test: functional, organism-based.
The test system of test [18] is Plutella xylostella. Briefly: Antifeedant activity against third-instar larval stage of Plutella xylostella (diamondback moth) infested compound-treated leaf assessed as reduction in feeding damage at 936 mg a.i/L after 48 hr by leaf disk assay relative to untreated control. Type of test: functional, organism-based. More on the design: scale not given: the % may be the effect or the level left.

Test [19] concerns Trichoplusia ni. The test can be described thus: Antifeedant activity against third-instar larval stage of Trichoplusia ni (cabbage looper) infested compound-treated leaf assessed as time required to stop feeding at 936 mg a.i/L after 48 hr by leaf disk assay (reference value: > 2880 min). Type of test: functional, organism-based.
Test [20] deals with Spodoptera exigua. The test can be described thus: Antifeedant activity against third-instar larval stage of Spodoptera exigua infested compound-treated leaf assessed as reduction in feeding damage at 936 mg a.i/L after 48 hr by leaf disk assay relative to untreated control. Type of test: functional, organism-based. Also on record: scale not given: the % may be the effect or the level left.

Test [21] relates to Plutella xylostella. The test can be described thus: Antifeedant activity against third-instar larval stage of Plutella xylostella (diamondback moth) infested compound-treated leaf assessed as time required to stop feeding at 936 mg a.i/L after 48 hr by leaf disk assay (reference value: > 2880 min). Type of test: functional, organism-based.
Test [22] deals with Trichoplusia ni. Briefly: Antifeedant activity against third-instar larval stage of Trichoplusia ni (cabbage looper) infested compound-treated leaf assessed as reduction in feeding damage at 936 mg a.i/L after 48 hr by leaf disk assay relative to untreated control. Also on record: scale not given: the % may be the effect or the level left. Type of test: functional, organism-based.

Test [23] deals with Helicoverpa zea. Briefly: Antifeedant activity against third-instar larval stage of Helicoverpa zea (corn earworm) infested compound-treated leaf assessed as reduction in feeding damage at 936 mg a.i/L after 48 hr by leaf disk assay relative to untreated control. Type of test: functional, organism-based. Also on record: scale not given: the % may be the effect or the level left.

Test [24] has as its system Spodoptera exigua. Briefly: Antifeedant activity against third-instar larval stage of Spodoptera exigua infested compound-treated leaf assessed as time required to stop feeding at 936 mg a.i/L after 48 hr by leaf disk assay (reference value: > 2880 min). Type of test: functional, organism-based.

Regarding `COc1cccc(C(=O)NN(C(=O)c2cc(C)cc(C)c2)C(C)(C)C)c1C` [METHOXYFENOZIDE], the Time in test [1] was found to be 408.8 min; in [3], 471.8 min; in test [5], 514.5 min; in test [6], 281.1 min. In addition, the Activity in test [2] amounted to 72.9%; in test [4], 81.6%; in test [7], 93.3%; in test [8], 96%.
With `CC1(C)[C@H](/C=C(\Cl)C(F)(F)F)[C@@H]1C(=O)O[C@@H](C#N)c1cccc(Oc2ccccc2)c1` [REL-LAMBDA CYHALOTHRIN], the Time in test [9] worked out at 5.4 min; in test [10], 7.3 min; in [12], 9.3 min; in test [13] it was 8.1 min. Further, the Activity is reported as 99.5% in test [11], 99.9% in [14], 99.6% in test [15] and 99.9% in test [16].
In the case of METAFLUMIZONE, the TIME amounted to 10.3 h in test [17], 4.23 h in test [19], 6.04 h in [21] and 7.96 h in test [24]. Besides, the Activity was 89.6% in test [18], 47.4% in [20], 87.6% in test [22] and 57.9% in [23].
